Results reported in ChEMBL document CHEMBL4368877, “Discovery of potent pyruvate dehydrogenase kinase inhibitors and evaluation of their anti-lung cancer activity under hypoxia” (Medchemcomm, 2018).
Active and inactive are the calls of the source. The rule behind the calls is not given here.

How the values were obtained:
[1] = target: Pyruvate dehydrogenase kinase (Homo sapiens) (UniProt Q15119+Q15120+Q16654+Q15118); experiment: Inhibition of PDK in human NCI-H1975 cells assessed as reduction in PDC phosphorylation at 10 uM measured after 12 hrs under hypoxic condition by Western blot analysis; assay type: cell-based
NCI-H1975 [2] = experiment: Cytotoxicity against human NCI-H1975 cells assessed as reduction in cell proliferation at 1 to 10 uM after 72 hrs under normoxic condition by MTT assay; assay type: cell-based; conditions: nci-h1975, 72 h
[3] = target: [Pyruvate dehydrogenase (acetyl-transferring)] kinase isozyme 2, mitochondrial (Homo sapiens, UniProt Q15119); experiment: Inhibition of PDK2 (unknown origin) using PDC E1 as substrate measured after 30 mins by kinase-glo assay
[4] = target: [Pyruvate dehydrogenase (acetyl-transferring)] kinase isozyme 4, mitochondrial (Homo sapiens, UniProt Q16654); experiment: Inhibition of PDK4 (unknown origin) using PDC E1 as substrate measured after 30 mins by kinase-glo assay
Sequence of [Pyruvate dehydrogenase (acetyl-transferring)] kinase isozyme 4, mitochondrial (Q16654 whole entry): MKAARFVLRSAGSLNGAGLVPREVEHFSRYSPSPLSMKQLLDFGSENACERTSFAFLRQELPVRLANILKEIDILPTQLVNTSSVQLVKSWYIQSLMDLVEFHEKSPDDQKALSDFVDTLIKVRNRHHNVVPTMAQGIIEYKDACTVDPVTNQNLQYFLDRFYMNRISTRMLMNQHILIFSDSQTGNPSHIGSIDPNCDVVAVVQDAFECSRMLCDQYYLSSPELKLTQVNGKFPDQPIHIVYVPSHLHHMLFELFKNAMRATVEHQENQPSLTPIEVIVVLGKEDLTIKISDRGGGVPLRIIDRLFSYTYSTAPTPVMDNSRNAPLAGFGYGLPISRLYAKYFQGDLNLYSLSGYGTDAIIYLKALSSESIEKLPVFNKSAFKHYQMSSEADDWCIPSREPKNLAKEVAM

[5] = target: [Pyruvate dehydrogenase (acetyl-transferring)] kinase isozyme 3, mitochondrial (Homo sapiens, UniProt Q15120); experiment: Inhibition of PDK3 (unknown origin) using PDC E1 as substrate measured after 30 mins by kinase-glo assay
Sequence of [Pyruvate dehydrogenase (acetyl-transferring)] kinase isozyme 3, mitochondrial (Q15120 whole entry): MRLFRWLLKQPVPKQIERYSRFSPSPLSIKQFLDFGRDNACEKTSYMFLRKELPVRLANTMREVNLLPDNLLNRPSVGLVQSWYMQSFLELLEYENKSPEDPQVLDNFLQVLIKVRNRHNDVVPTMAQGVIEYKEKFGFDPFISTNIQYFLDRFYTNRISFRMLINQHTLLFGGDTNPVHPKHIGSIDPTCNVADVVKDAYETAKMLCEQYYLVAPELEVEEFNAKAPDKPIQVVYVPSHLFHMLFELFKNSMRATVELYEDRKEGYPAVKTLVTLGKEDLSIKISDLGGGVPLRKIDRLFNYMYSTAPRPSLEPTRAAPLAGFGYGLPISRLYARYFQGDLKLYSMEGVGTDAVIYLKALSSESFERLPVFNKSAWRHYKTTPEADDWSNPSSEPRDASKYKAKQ

[6] = target: [Pyruvate dehydrogenase (acetyl-transferring)] kinase isozyme 1, mitochondrial (Homo sapiens, UniProt Q15118); experiment: Inhibition of PDK1 (unknown origin) using PDC E1 as substrate measured after 30 mins by kinase-glo assay
Sequence of [Pyruvate dehydrogenase (acetyl-transferring)] kinase isozyme 1, mitochondrial (Q15118 whole entry): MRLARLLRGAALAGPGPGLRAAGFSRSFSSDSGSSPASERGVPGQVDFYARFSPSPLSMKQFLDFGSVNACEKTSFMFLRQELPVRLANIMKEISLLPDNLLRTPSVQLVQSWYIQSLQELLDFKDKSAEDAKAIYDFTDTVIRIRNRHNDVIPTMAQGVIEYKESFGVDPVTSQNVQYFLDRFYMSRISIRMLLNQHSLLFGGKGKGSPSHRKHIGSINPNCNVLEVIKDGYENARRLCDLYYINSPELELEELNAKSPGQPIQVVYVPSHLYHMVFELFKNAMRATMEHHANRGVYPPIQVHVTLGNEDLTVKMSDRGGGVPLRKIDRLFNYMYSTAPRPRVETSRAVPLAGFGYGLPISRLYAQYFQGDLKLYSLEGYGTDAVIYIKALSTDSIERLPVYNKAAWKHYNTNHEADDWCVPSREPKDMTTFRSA

NCI-H1975 [7] = experiment: Cytotoxicity against human NCI-H1975 cells assessed as reduction in cell proliferation after 72 hrs under hypoxic condition by MTT assay; conditions: NCI-H1975, 72 h

IC50 [3] | IC50 [4] | IC50 [5] | IC50 [6] | Compound | inhibition [1] | Activity (NCI-H1975 [2]) | EC50 (NCI-H1975 [7])
1.5 µM | 6.8 µM | 3.9 µM | – | OCCOc1ccc(CN2CCN(Cc3ccc(F)c(F)c3)[C@@H](CCO)C2)cc1 | – | Non-Toxic | –
2.5 µM | 12.3 µM | 7.8 µM | 1.26 µM | CN(C)CCCn1ccnc1[C@H]1CCCN(C(=O)c2ccc3cc[nH]c3c2)C1 | – | Non-Toxic | –

The remaining lines, values behind:

Compound | IC50 [3] | IC50 [4] | IC50 [5] | IC50 [6] | inhibition [1] | Activity (NCI-H1975 [2]) | EC50 (NCI-H1975 [7])
O=C(c1ccccc1)C(Cl)Cl | – | – | – | – | Active | – | –
Cc1cnc(Cl)nc1-c1ccc(N(Cc2ccc(CNC(=O)C(F)F)cc2)C(=O)c2ccc(O)cc2O)cc1 | – | – | – | – | – | Non-Toxic | –
O=C(NCc1ccccc1-n1cccn1)c1cc(-c2ccccc2O)n[nH]1 | 2.6 µM | 8.7 µM | 4.8 µM | 0.62 µM | – | Non-Toxic | 4.28 µM
